A short description of the data set: photoluminescence quantum yield (fraction); solvent given as SMILES.
Where [1] appears, read: in c1cc(-n2c3ccccc3c3ccccc32)cc(-n2c3ccccc3c3ccccc32)c1.

The results in this text go back to the Deep4Chem optical property database.

For the setting “in Cc1ccccc1”, `CCCCCCCCCCCCn1cccc1/C=C/c1cc(OCCCC)c(/C=C/c2cccn2CCCCCCCCCCCC)cc1OCCCC` showed a photoluminescence quantum yield of 0.4.
Where the note is “in CCO”, `CC1CC=C(c2ccc(-c3ccc(C=O)s3)s2)CC1` (stereo unspecified) returned a photoluminescence quantum yield of 0.43.
For the compound `c1ccc(-c2nnc(-c3ccc(N4c5ccccc5N(c5ccccc5)c5ccccc54)cc3)o2)cc1`, the photoluminescence quantum yield is 0.12 (in Cc1ccccc1) and 0.45 under setting [1].
For `[C-]#[N+]c1ccc(-c2ccc(NC)cc2)cc1`, the photoluminescence quantum yield reads like this: (in C1CCCCC1) 0.74; (in C1CCOC1) 0.74; (in C1COCCO1) 0.77; (in CC#N) 0.88; (in CC(C)=O) 0.55; (in CCCCCC) 0.49. Also, the photoluminescence quantum yield came to 0.63 (in CCOC(C)=O); 0.49 (in CN(C)C=O); 0.65 (in CO); 0.72 (in CS(C)=O); 0.59 (in Cc1ccccc1); 0.55 (in ClC(Cl)Cl). Also, the photoluminescence quantum yield by setting is: (in ClCCl) 0.85; (in O) 0.0087; (in c1ccncc1) 0.03.
The compound `Cc1c(C)n2c(COC(=O)c3ccccc3I)c(C)c(=O)n2c1=O` registered a photoluminescence quantum yield (in CCO) of 0.634.
`C(#Cc1nc2ccccc2s1)c1ccc(N(c2ccc(C#Cc3nc4ccccc4s3)cc2)c2ccc(C#Cc3nc4ccccc4s3)cc2)cc1` gave a photoluminescence quantum yield (in Cc1ccccc1) of 0.8.
Regarding `Nc1cccc2cccc(N)c12`, the photoluminescence quantum yield runs as follows: (in CC#N) 0.1; (in CO) 0.09; (in CS(C)=O) 0.3; (in Cc1ccccc1) 0.13.
As for `CC1=C(/C=C/c2ccccc2)C(C)=[N+]2C1=C(c1ccccc1)c1c(C)c(/C=C/c3ccccc3)c(C)n1[B-]2(F)F`, the photoluminescence quantum yield (in ClC(Cl)Cl) came out at 0.01.
Regarding `COC(=O)c1ccc(/C=C2\N=C(c3ccc(OC)c(OC)c3)OC2=O)cc1`, where the note is “in C1COCCO1”, the photoluminescence quantum yield turned out to be 0.348.
In the case of `CCC(CC)COC1=CC2=C3c4cc(OCC(CC)CC)c(-c5cccs5)n4[B-](F)(F)[n+]4nnn(c43)[B-](F)(F)[N+]2=C1c1cccs1`, the photoluminescence quantum yield is 0.06 (in C1CCOC1) and 0.06 (in ClCCl).
With `C[C@]12C(=O)NC(=O)N([C@H]3CC(O)[C@@H](CO)O3)[C@H]1[C@H]1Oc3cc4oc(=O)ccc4cc3[C@H]12` (stereo partly specified), the photoluminescence quantum yield came to 0.003 (in CC(C)O); 0.005 (in CCO); 0.001 (in CCOCC); 0.007 (in CO); 0.044 (in O).
As for `CN(C)c1ccc(/C=C/c2cc(/C=C/c3ccc(N(C)C)cc3)nc(/C=C/c3ccccc3)n2)cc1`, the photoluminescence quantum yield (in ClCCl) is 0.72.
`c1ccc(-c2ccc(-c3nc(-n4c5ccccc5c5ccc6c7ccccc7n(-c7ccccc7)c6c54)nc(-n4c5ccccc5c5ccc6c7ccccc7n(-c7ccccc7)c6c54)n3)cc2)cc1`: the photoluminescence quantum yield (in Cc1ccccc1) worked out at 0.1.
Compound `Fc1c(-c2nnc(-c3ccccc3)o2)c(-n2c3ccccc3c3ccccc32)c(F)c(-n2c3ccccc3c3ccccc32)c1-n1c2ccccc2c2ccccc21` yielded a photoluminescence quantum yield (in Cc1ccccc1) of 0.2.
In turn, `CCCCCCCCC1(CCCCCCCC)c2cc(C#CC#Cc3ccc(N(c4ccccc4)c4ccccc4)cc3)ccc2-c2ccc(C=O)cc21` registered a photoluminescence quantum yield (in C1CCOC1) of 0.9; a photoluminescence quantum yield (in C1COCCO1) of 0.76; a photoluminescence quantum yield (in CC#N) of 0.2; a photoluminescence quantum yield (in CC(C)=O) of 0.23; a photoluminescence quantum yield (in CCCCCC) of 0.5; a photoluminescence quantum yield (in CCOC(C)=O) of 0.76. Moreover, the photoluminescence quantum yield is 0.16 (in CN(C)C=O); 0.2 (in CS(C)=O); 0.94 (in Cc1ccccc1); 0.09 (in ClC(Cl)Cl); 0.7 (in ClCCl).
With `CCN(CC)c1ccc2ccc(=O)oc2c1`, the photoluminescence quantum yield is, setting by setting: (in CC(C)=O) 0.55; (in CCCCCC) 0.85; (in CCCCCCC) 0.85; (in CCCCO) 0.47; (in CCCO) 0.52; (in CCO) 0.39. The photoluminescence quantum yield stood at 0.8 (in CCOCC); 0.56 (in CN(C)C=O); 0.27 (in CO); 0.83 (in Cc1ccccc1); 0.62 (in ClC(Cl)Cl); 0.9 (in ClCCl). This compound also gave a photoluminescence quantum yield (in OCCO) of 0.25 and a photoluminescence quantum yield (in c1ccccc1) of 0.83.
As to `CC(C)(C)c1ccc2c(c1)c1cc(C(C)(C)C)ccc1n2-c1ccc(-c2ccc3c(c2)C2(c4cc(-c5ccc(-n6c7ccc(C(C)(C)C)cc7c7cc(C(C)(C)C)ccc76)cc5)ccc4-3)c3ccccc3S(=O)(=O)c3ccccc32)cc1`, the photoluminescence quantum yield by setting is: (in ClCCl) 0.88; under setting [1], 0.83.
Consider `CC1(C)C(/C=C/C2=C(Cl)C(=C/C=C3/N(CCCS(=O)(=O)[O-])c4ccccc4C3(C)C)/CCC2)=[N+](CCCS(=O)(=O)[O-])c2ccccc21`, for which, under “in CO”, the photoluminescence quantum yield amounted to 0.05.
As to `CCN(CC)c1ccc(/C=C/c2ccc(-c3ccc(/C=C/c4ccc(N(CC)CC)cc4)s3)s2)cc1`, the photoluminescence quantum yield by setting is: (in C1CCOC1) 0.14; (in CC#N) 0.13; (in CC(C)=O) 0.13; (in CN(C)C=O) 0.12; (in Cc1ccccc1) 0.14.
In turn, `COc1cc(-c2cnc(-c3ccncc3)o2)cc(OC)c1OC` had a photoluminescence quantum yield (in ClCCl) of 0.76.
Take `F[B-]1(F)n2cccc2C(c2ccc(-c3c4ccccc4c(-c4ccccc4)c4ccccc34)cc2)=C2C=CC=[N+]21`: the photoluminescence quantum yield (in CC#N) turned out to be 0.001; the photoluminescence quantum yield (in CCCCCC) worked out at 0.014; the photoluminescence quantum yield (in CCO) stood at 0.003; the photoluminescence quantum yield (in CN(C)C=O) worked out at 0.002; the photoluminescence quantum yield (in Cc1ccccc1) turned out to be 0.036; the photoluminescence quantum yield (in ClCCl) is 0.002.
As to `Cc1ccc2nc3cc4c5c(cccc5c3nc2c1)C(c1ccccc1)=C(c1ccccc1)O4`, the photoluminescence quantum yield (in ClCCl) was found to be 0.37.
For the setting “in CCO”, `CCOC(=O)c1cc(C(=O)OCC)c2cc(C)ccc2n1` yielded a photoluminescence quantum yield of 0.022.
In the case of `Cc1cc(C)c(C2=C3C=c4c(c5ccc(C(C)(C)C)cc5c5cc(C(C)(C)C)ccc45)=[N+]3[B-](F)(F)n3c2cc2c4ccc(C(C)(C)C)cc4c4cc(C(C)(C)C)ccc4c23)c(C)c1`, the photoluminescence quantum yield was found to be 0.3 (in C1CCCCC1); 0.25 (in C1CCOC1); 0.24 (in CC#N); 0.29 (in Cc1ccccc1); 0.25 (in ClCCl).
Take `c1ccc(-c2cc3c(oc4ccccc43)c(-c3ccccc3)[o+]2)cc1`: the photoluminescence quantum yield reads like this: (in CC#N) 0.18; (in ClCCCl) 0.1.
In the case of `CCOC(=O)CN1C(=O)C2=C(c3ccc(N4CCCCC4)cc3)N(CC(=O)OCC)C(=O)C2=C1c1ccccc1`, the photoluminescence quantum yield stood at 0.01 (in CC#N), 0.12 (in CS(C)=O) and 0.34 (in Cc1ccccc1).
As for `CCCCc1ccc(-n2c3c(c4c2c2c(n4-c4ccc(CCCC)cc4)-c4ccc(C(F)(F)F)cc4NB2c2ccccc2)B(c2ccccc2)Nc2cc(C(F)(F)F)ccc2-3)cc1`, the photoluminescence quantum yield (in Cc1ccccc1) stood at 0.78.
For the compound `O=C(O)CCCOc1cc2ccc3cccc4ccc(c1)c2c34`, under “in CO”, the photoluminescence quantum yield was found to be 0.77.
The compound `COCCN1C(=O)/C(=C/c2cccc(N(C)C)c2)N=C1C` had a photoluminescence quantum yield (in C1CCOC1) of 0.13, a photoluminescence quantum yield (in CC#N) of 0.04 and a photoluminescence quantum yield (in CCCCCC) of 0.45.
As to `COc1cccc2oc(-c3cc4c(OC)cccc4oc3=O)cc12`, the photoluminescence quantum yield (in CS(C)=O) is 0.68.
As to `CN(C)c1ccc(C2=[N+]3C(=Nc4c5ccccc5c(-c5ccc(N(C)C)cc5)n4[B-]3(F)F)c3ccccc32)cc1`, where the note is “in ClCCl”, the photoluminescence quantum yield turned out to be 0.01.
`CN(C)c1ccc(C(=Cc2ccc(/C=C(\C#N)c3ccccc3)cc2)c2ccc(N(C)C)cc2)cc1` gave a photoluminescence quantum yield (in C1CCOC1) of 0.053.
For the setting “in C1COCCO1”, `COc1ccc(C2=C/C(=C\c3ccccc3)C(=O)N2)cc1OC` came in with a photoluminescence quantum yield of 0.108.
Where the note is “in ClC(Cl)Cl”, `COc1ccc(N(c2ccc(OC)cc2)c2ccc(-c3ccc(-c4ccc(-c5ccc(-c6ccc(N(c7ccc(OC)cc7)c7ccc(OC)cc7)cc6)s5)c5nsnc45)s3)cc2)cc1` registered a photoluminescence quantum yield of 0.18.
As to `CCCCCCCCCCCCOc1ccc(C#CC(C#Cc2ccc(OCCCCCCCCCCCC)cc2)=Cc2cc(C=C(C#Cc3ccc(OCCCCCCCCCCCC)cc3)C#Cc3ccc(OCCCCCCCCCCCC)cc3)cc(C=C(C#Cc3ccc(OCCCCCCCCCCCC)cc3)C#Cc3ccc(OCCCCCCCCCCCC)cc3)c2)cc1`, the photoluminescence quantum yield (in CCOC(C)=O) turned out to be 0.35.
The compound `c1ccc(-c2nnc(-c3ccc(-n4c5ccccc5c5ccccc54)cc3)o2)cc1` returned a photoluminescence quantum yield (in Cc1ccccc1) of 0.57.
Under “in O”, `[NH3+]C(Cc1ccc(O)c(O)c1)C(=O)[O-]` (stereo unspecified) returned a photoluminescence quantum yield of 0.075.
With `CCN1c2ccc(/C=N/Nc3ccccn3)cc2Sc2cc(-c3ccc(C#N)cc3)ccc21`, the photoluminescence quantum yield (in C1CCOC1) is 0.23, the photoluminescence quantum yield (in CS(C)=O) was determined as 0.23, the photoluminescence quantum yield (in Cc1ccccc1) is 0.33 and the photoluminescence quantum yield (in ClCCl) amounted to 0.36.
In turn, `O=P1(c2ccccc2)c2cccc3c4ccccc4c4ccc1n4c23` (stereo unspecified) yielded a photoluminescence quantum yield (in ClCCl) of 0.25.
Where the note is “in CO”, `CCCCCCc1cc(B(c2c(C)cc(C)cc2C)c2c(C)cc(C)cc2C)c(-c2sc(CCCCCC)cc2P(=O)(c2ccccc2)c2ccccc2)s1` had a photoluminescence quantum yield of 0.17.
`c1ccc(-c2ccc(-c3ccc4c(c3)CCO4)cc2)cc1` had a photoluminescence quantum yield (in C1CCCCC1) of 0.66.
`Cc1cccc2c1nc1c(=O)n(C)c(=O)nc-1n2C` yielded a photoluminescence quantum yield (in CC#N) of 0.14.
As for `CC1=c2c3c4cccc5cccc(c=3c(C)[n+]2[B-](F)(F)n2c(C)c3c(c21)-c1cccc2cccc-3c12)c54`, for the setting “in ClC(Cl)Cl”, the photoluminescence quantum yield came out at 0.
